Test results published in patent publication US8859611B2, “Thiophene inhibitors of S-nitrosoglutathione reductase” (N30 Pharmaceuticals, Inc., priority 2009, dated 2014).

Target: T1, GSNOR (Homo sapiens, UniProt P11766)
T1 construct: made in house; host or cells: E. coli (arabinose-induced)
Assay: GSNOR assay (in vitro inhibition of GSNOR activity, NADH absorbance at 340 nm)
Format: biochemical
Details: 100 mM NaPO4 pH 7.4, 0.240 mM GSNO, 0.300 mM NADH, 0.5 μg/mL GSNO Reductase, 1% DMSO, 25° C.; read-out: IC50 (GSNOR inhibitor activity)
Method: Various compounds were tested in vitro for their ability to inhibit GSNOR activity.
GSNOR expression and purification is described in Biochemistry 2000, 39, 10720-10729.
Pre-cultures were grown from stabs of a GSNOR glycerol stock in 2XYT media containing 100 ug/ml ampicillin after an overnight incubation at 37° C. Cells were then added to fresh 2XYT (4 L) containing ampicillin and grown to an OD (A600) of 0.6-0.9 at 37° C. before induction. GSNOR expression was induced with 0.1% arabinose in an overnight incubation at 20° C.
E. coli cell paste was lysed by nitrogen cavitation and the clarified lysate purified by Ni affinity chromatography on an AKTA FPLC (Amersham Pharmacia). The column was eluted in 20 mM Tris pH 8.0/250 mM NaCl with a 0-500 mM imidazole gradient. Eluted GSNOR fractions containing the Smt-GSNOR fusion were digested overnight with Ulp-1 at 4° C. to remove the affinity tag then re-run on the Ni column under the same conditions. GSNOR was recovered in the flowthrough fraction and for crystallography is further purified by Q-Sepharose and Heparin flowthrough chromatography in 20 mM Tris pH 8.0, 1 mM DTT, 10 uM ZnSO4.
GSNO and enzyme/NADH Solutions are made up fresh each day. The solutions are filtered and allowed to warm to room temperature. GSNO solution: 100 mM NaPO4 (pH 7.4), 0.480 mM GSNO. 396 μL of GSNO Solution is added to a cuvette followed by 8 μL of test compound in DMSO (or DMSO only for full reaction control) and mixed with the pipette tip. Compounds to be tested are made up at a stock concentration of 10 mM in 100% DMSO. 2 fold serial dilutions are done in 100% DMSO. 8 μL of each dilution are added to an assay so that the final concentration of DMSO in the assay is 1%. The concentrations of compounds tested range from 100 to 0.003 μM. Enzyme/NADH solution: 100 mM NaPO4 (pH 7.4), 0.600 mM NADH, 1.0 μg/mL GSNO Reductase. 396 μL of the Enzyme/NADH solution is added to the cuvette to start the reaction. The cuvette is placed in the Cary 3E UV/Visible Spectrophotometer and the change in 340 nm absorbance/min at 25° C. is recorded for 3 minutes. The assays are done in triplicate for each compound concentration. IC50's for each compound are calculated using the standard curve analysis in the Enzyme Kinetics Module of SigmaPlot.
Final assay conditions: 100 mM NaPO4, pH 7.4, 0.240 mM GSNO, 0.300 mM NADH, 0.5 μg/mL GSNO Reductase, and 1% DMSO. Final volume: 800 μL/cuvette.

T1 sequence (P11766 whole entry): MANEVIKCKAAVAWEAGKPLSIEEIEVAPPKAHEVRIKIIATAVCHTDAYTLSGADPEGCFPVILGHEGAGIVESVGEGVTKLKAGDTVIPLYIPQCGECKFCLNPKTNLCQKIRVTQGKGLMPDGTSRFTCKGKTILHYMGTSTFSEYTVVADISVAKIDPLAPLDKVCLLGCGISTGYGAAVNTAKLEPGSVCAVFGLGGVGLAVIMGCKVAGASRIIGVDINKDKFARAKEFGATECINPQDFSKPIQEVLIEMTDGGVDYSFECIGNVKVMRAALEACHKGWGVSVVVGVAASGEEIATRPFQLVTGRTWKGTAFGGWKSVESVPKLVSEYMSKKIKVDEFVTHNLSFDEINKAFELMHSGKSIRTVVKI

| SMILES | IC50 |
| --- | --- |
| Cc1cc(NS(C)(=O)=O)ccc1-c1c(-c2ccc(-n3ccnc3C)cc2)csc1CCC(=O)O [Example 9, 3-(4-(4-(2-methyl-1H-imidazol-1-yl)phenyl)-3-(2-methyl-4-(methylsulfonamido)phenyl)thiophen-2-yl)propanoic acid] | < 1000 nM |
| COc1ccc(-c2scc(CCC(=O)O)c2-c2ccc(C(N)=O)cc2C)cc1 [Example 14, 3-(4-(4-carbamoyl-2-methylphenyl)-5-(4-methoxyphenyl)thiophen-3-yl)propanoic acid] | < 1000 nM |
| Cc1cc(C(N)=O)ccc1-c1c(-c2ccc(-n3ccnc3C)s2)csc1CCC(=O)O [Example 11, 3-(4′-(4-carbamoyl-2-methylphenyl)-5-(2-methyl-1H-imidazol-1-yl)-2,3′-bithiophen-5′-yl)propanoic acid] | < 1000 nM |
| COc1ccc(-c2csc(CCC(=O)O)c2-c2ccc(C(N)=O)cc2C)cc1 [Example 1, 3-(3-(4-carbamoyl-2-methylphenyl)-4-(4-methoxyphenyl)thiophen-2-yl)propanoic acid] | < 1000 nM |
| Cc1nccn1-c1ccc(-c2csc(CCC(=O)O)c2-c2ccc(C(N)=O)cc2)cc1 [Example 8, 3-(3-(4-carbamoylphenyl)-4-(4-(2-methyl-1H-imidazol-1-yl)phenyl)thiophen-2-yl)propanoic acid] | < 1000 nM |

Results, then the compound that gave them:

| IC50 | SMILES |
| --- | --- |
| < 1000 nM | Cc1cc(NS(C)(=O)=O)ccc1-c1c(-c2ccc(-n3ccnc3C)s2)csc1CCC(=O)O [Example 12, 3-(5-(2-methyl-1H-imidazol-1-yl)-4′-(2-methyl-4-(methylsulfonamido)phenyl)-2,3′-bithiophen-5′-yl)propanoic acid] |
| < 1000 nM | Cc1cc(C(N)=O)ccc1-c1c(-c2ccc(-n3ccnc3C)cc2)csc1CCC(=O)O [Example 7, 3-(3-(4-carbamoyl-2-methylphenyl)-4-(4-(2-methyl-1H-imidazol-1-yl)phenyl)thiophen-2-yl)propanoic acid] |
| < 1000 nM | Cc1cc(C(N)=O)ccc1-c1c(-c2ccc(Br)cc2)csc1CCC(=O)O [Example 13, 3-(4-(4-bromophenyl)-3-(4-carbamoyl-2-methylphenyl)thiophen-2-yl)propanoic acid] |
| < 1000 nM | COc1cc(Cl)ccc1-c1csc(CCC(=O)O)c1-c1ccc(C(N)=O)cc1 [Example 2, 3-(3-(4-carbamoylphenyl)-4-(4-chloro-2-methoxyphenyl)thiophen-2-yl)propanoic acid] |
| < 1000 nM | COc1cc(Cl)ccc1-c1csc(CCC(=O)O)c1-c1ccc(O)cc1 [Example 4, 3-(4-(4-chloro-2-methoxyphenyl)-3-(4-hydroxyphenyl)thiophen-2-yl)propanoic acid] |
